The values below are quoted from earlier work in patent US5585379A, “Acyclovir antiviral gel composition” (AGIS Industries (1983) Ltd., priority 1992, dated 1996).

Structures are written as SMILES. Read-outs that look alike come from different tables or passages of the source.

The subject of data set [1] is herpes simplex virus infections.
The next data set relates to herpes simplex virus. The note with it: in vitro and in vivo.
For data set [2] the following is noted: oral.

Turning to `Nc1nc2c(ncn2COCCO)c(=O)[nH]1` [Acyclovir, 9-(2-hydroxyethoxymethyl)guanine], the “solubility in water (words)” value is reported as “low solubility in water”. In addition, the “efficacy of topical therapy compared to oral or parenteral” value in data set [1] was “lacks efficacy as compared to oral or parenteral administrations”. In addition, the “antiviral activity against herpes simplex virus (words)” value in the data set with herpes simplex virus was “active against herpes simplex virus”. For the same compound, the “antiviral activity against herpes simplex virus (words)” value in the data set with herpes simplex virus (listed as acyclovir) is on record as “potent antiviral activity against herpes simplex virus”. Under “hydrophobic solvent systems”, the “solubility in hydrophobic solvent systems” value is listed as “almost totally insoluble in hydrophobic solvent systems”. The “solubility in water (words)” value (listed as acyclovir) is given as “poor water-solubility”. Further, the “therapeutic effect on vulvar vestibulitis” value in data set [2] is recorded as “therapeutic effect on vulvar vestibulitis”.
